Consider three compounds from paper PMC11931052, “Efficacy of dispirotripiperazine PDSTP in a golden Syrian hamster model of SARS-CoV-2 infection” (Frontiers in Microbiology, 2025).

Data set [1] is described as follows: Cytotoxicity (MTT test) in Vero E6 cell line. It counts as cell-based, African Green Monkey (Cercopithecus aethiops). The settings on record: African green monkey, mean ± SD, three independent experiments. The protocol: (§1) The microtetrazolium test (MTT test) was used to study the cytotoxicity of the compounds. Vero cells were seeded in 96-well plates at an initial density of 3×10^5 cells/mL, in Gibco Dulbecco’s Modified Eagle Medium supplemented with L-glutamine and 25 mg/L kanamycin, and 10 % fetal bovine serum (FBS) (DMEM, Thermo Fisher Scientific, Waltham, MA USA). Cell cultures were then incubated at 37 °C in a 5 % CO2 atmosphere, in the absence or presence of serial dilutions of test compounds. The test medium used for the cytotoxic assay as well as for the antiviral assay contained 1 % of the appropriate serum. Cell viability was determined after 72 h at 37 °C by the MTT method as previously reported. The cell viability was expressed as a percentage of the control. The 50% cytotoxic concentration (CC50) of each compound was defined as the concentration of the compound that reduced the absorbance (OD570) of the treated cells to 50% when compared with that of untreated cells. CC50 mean values were calculated from at least three independent experiments.
A general note: Tetrazolium dyes change colour on reduction, which living cells bring about.

Data set [2] has as its system SARS-CoV-2 clinical isolate 35245. Description: Plaque reduction assay, SARS-CoV-2 35245. The settings on record: Severe acute respiratory syndrome coronavirus 2, read-out: Antiviral activity IC50 against coronaviruses, SARS-CoV-2 clinical isolate 35245, PR. It counts as cell-based. In general terms: In a plaque reduction assay, fewer plaques than in the control indicate reduced infectivity or spread.

In data set [3] the test system is SARS-CoV-2 clinical isolate VR PV10734. In words: Plaque reduction assay, SARS-CoV-2 VR PV10734 in Vero E6 cells. It counts as cell-based. The following applies: Severe acute respiratory syndrome coronavirus 2, Vero C1008, mean ± SD, read-out: Antiviral activity IC50 against coronaviruses, SARS-CoV-2 clinical isolate VR PV10734, PR. The protocol:
(§2) Vero E6 cells were incubated in the presence of PDSTP and reference compounds (100.0, 20.0, 4.0, and 0.8 μM concentrations) for 1 h at 37°C in a 5% CO2 and then infected for 1 h with 250 μL of the corresponding virus (SARS-CoV-2 PV10734 or HCoV-229E) dilutions to obtain 50–100 PFU/well. The plates were then incubated for 1 h at 37°C in a 5% CO2 atmosphere. Following the removal of the unabsorbed virus, 400 μL of the medium (D-MEM with L-glutamine, 4,500 mg/L D-glucose, and 1% inactivated FBS) containing 0.75% methyl-cellulose (M0512, viscosity 4,000 cP, Sigma-Aldrich, United States) and the serial dilutions of the compounds were added and incubated for 4 (SARS-CoV-2) or 2 (HCoV-229E) days at 37°C in a 5% CO2 atmosphere. Subsequently, the cells were fixed and stained with a 0.2% crystal violet solution (V5265, Sigma-Aldrich, United States) and then the number of plaques was calculated. The degree of cell growth/viability and viral multiplication at each drug concentration tested was expressed as a percentage of the untreated control. Concentrations resulting in 50% inhibition (CC50 or EC50) were determined using linear regression analysis.

A further data set deals with HCoV-229E. In words: Plaque reduction assay, HCoV-229E in Vero E6 cells. It counts as cell-based. The settings on record: Human coronavirus 229E, Vero C1008, Vero E6, mean ± SD, read-out: Antiviral activity IC50 against coronaviruses, HCoV-229E, PR. The method, then: as §2
Data set [4] deals with SARS-CoV-2 clinical isolate 35245. In words: Microtetrazolium (MTT) test, SARS-CoV-2 35245. It counts as cell-based. The settings on record: Severe acute respiratory syndrome coronavirus 2, read-out: Antiviral activity IC50 against coronaviruses, SARS-CoV-2 clinical isolate 35245, MTT. The protocol:
The compound’s activity against OC43 and SARS-CoV-235245 was based on the inhibition of virus-induced cytopathogenicity in acutely infected Vero-76 cells (MOI 0.01). Briefly, Vero-76 cells were seeded in 96-well plates at a density of 3 × 10^4 cells/well and incubated in a growth medium in a 5% CO2 at 37°C overnight. Cell monolayers were then infected with 50 μL of the appropriate viral dilution in maintenance medium [D-MEM and MEM-Earl (Gibco, Thermo Fisher Scientific, MA United States) with L-glutamine (Gibco), 1 mM sodium pyruvate (Gibco), and 0.025 g/L kanamycin (Gibco), supplemented with 0.5% inactivated FBS (Harlan Sera-Lab, Loughborough, United Kingdom), respectively] to give an MOI of 0.01, without or with serial dilutions of test samples. After 6 (HCoV-OC43) and 4/5 (SARS-CoV-2) days of incubation at 37°C, the extent of cell viability was quantified using a tetrazolium-based colorimetric method, in which the reduction of 3-(4,5-dimethylthiazol-2-yl)-2,5-diphenyl-tetrazolium bromide (MTT) by mitochondrial dehydrogenases to a soluble colored formazan was measured using a spectrophotometer (Infinity 200, Tecan Austria GmbH, Austria) at 570 nm, as previously reported ([Sanna et al., 2020]).

The test system of another data set is HCoV-OC43. In words: MTT test, HCoV-OC43 in Vero-76 cells. The data set is classed as cell-based. The settings on record: Betacoronavirus 1, OC43, Vero 76, read-out: IC50 (HCoV-OC43).
Data set [5] can be described thus: Cytotoxicity (MTT test) in Vero-76 cells. The data set is classed as cell-based, African Green Monkey (Cercopithecus aethiops). The following applies: African green monkey. The method, then:
as §1

A further data set deals with SARS-COV-2 PV10734. In words: Time-of-addition and cell pre-treatment assay in Vero cells. It counts as cell-based.

Turning to `CCN(CCO)CCCC(C)Nc1ccnc2cc(Cl)ccc12` (centres unmarked) [HDQ, Hydroxychloroquine, reference compound], the CC50 at 72 h in data set [1] (Vero E6 cells) and in data set [5] (Vero-76 cells) was 40 ± 5 µM each time. Besides, the IC50 in data set [2] amounted to 2.3 ± 0.7 µM; in data set [3], 2.4 ± 0.7 µM; in the data set on HCoV-229E, 1.6 ± 0.5 µM; in data set [4], 11 ± 2.9 µM; in the data set with HCoV-OC43, 9.8 ± 1.7 µM.

Take `CCC(CC)COC(=O)[C@H](C)N[P@](=O)(OC[C@H]1O[C@@](C#N)(c2ccc3c(N)ncnn23)[C@H](O)[C@@H]1O)Oc1ccccc1` [RMD, Remdesivir]: the “Antiviral activity after the SARS-CoV-2 entry process” value with SARS-COV-2 PV10734 was “exerted its antiviral activity”. Besides, in the data set with SARS-COV-2 PV10734, the “Antiviral activity, pre-treatment and early stages of infection” value is “did not affect the early events of the viral life cycle”. The CC50 at 72 h in data set [1] and in data set [5] was more than 100 µM each time. For the same compound, the IC50 in data set [3] turned out to be 1.6 ± 0.3 µM; in the data set on HCoV-229E, 6 ± 2 µM.

As to heparin, in the data set with SARS-COV-2 PV10734 (addition at 4 and 6 hpi), the “Inhibitory effect at the later stages of infection” value is “barely noticeable”.

Broadly, the CC50 is the concentration at which the toxic effect on the cells reaches its halfway point. What is called IC50 is the concentration that gives 50% inhibition.
